From US20250296971A1, “GASTRIC INHIBITORY PEPTIDE RECEPTOR LIGANDS” (priority 2021, published 2025)
*1 amine or outer side, *2 acyl side, *3 side chain or, on linkers, in order; H or OH if unused. Where a SMILES comes first, the peptide text is derived from it. Bridges are numbered along the chain shown (N, C = ends). [ ]: non-standard residue; d: D form. The star is where a group is joined. NH(1-deoxy-D-glucityl) = OC[C@@H](O)[C@@H](O)[C@H](O)[C@@H](O)CN*; DOTA = O=C(O)CN1CCN(CC(=O)O)CCN(CC(=O)*)CCN(CC(=O)O)CC1; Trp(5-Cl) = N[C@@H](Cc1c[nH]c2ccc(Cl)cc12)C(=O)O; Pyridine(2,6-diCH2) = c1cc(C[*:1])nc(C[*:2])c1; Pro(4R-NH2) = N[C@H]1CN[C@H](C(=O)O)C1; Glutaryl = O=C(CCCC(=O)[*:2])[*:1]; X1 = O=C(CN1CCC(N[*:1])CC1)[*:2]; Api = NC1(C(=O)O)CCNCC1

Key:
[1] = molecular target: T1, GIPR (CHO-K1-hGIPR cells) (Homo sapiens, UniProt P48546); test: FACS binding assay; details: competition with 20 nM GIP-057, 4° C., 1 hour, read-out: pIC50 Category (converted)
T1 construct: host or cells: CHO-K1
T1 sequence (P48546 22-466): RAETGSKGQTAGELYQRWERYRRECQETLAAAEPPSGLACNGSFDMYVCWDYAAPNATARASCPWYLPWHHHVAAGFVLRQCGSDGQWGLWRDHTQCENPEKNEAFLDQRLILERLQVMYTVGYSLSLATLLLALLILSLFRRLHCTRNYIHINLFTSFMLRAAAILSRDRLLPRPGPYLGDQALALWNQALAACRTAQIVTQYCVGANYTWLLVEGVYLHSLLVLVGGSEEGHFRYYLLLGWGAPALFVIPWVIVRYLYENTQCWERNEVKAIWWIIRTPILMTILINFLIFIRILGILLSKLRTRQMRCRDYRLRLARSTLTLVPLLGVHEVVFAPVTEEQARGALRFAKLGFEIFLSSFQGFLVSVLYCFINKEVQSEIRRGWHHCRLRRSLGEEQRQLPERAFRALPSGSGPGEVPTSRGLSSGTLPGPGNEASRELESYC
Procedure, shortened: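 Peptide binding read by flow cytometry as APC-channel median fluorescence, fitted with a four-parameter logistic to yield EC50 or IC50. Cells were hGIPR-transfected CHO-K1 in PBS with 1% FCS, detected with 1 μg/mL APC-streptavidin, 30 min on ice.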

[2] = Plasma stability assay, mouse plasma; format: in vitro ADME; details: 37° C., % intact compound remaining after 4 h or 24 h
Procedure, shortened: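 K2EDTA mouse or human plasma spiked with compound from 0.5 mM DMSO stock, incubated at 37 °C for 0, 4 and 24 h in duplicate. Proteins precipitated with acetonitrile/1% TFA, internal standard added; recovery and carry-over evaluated.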

IC50 [1]: < 10 nM
Mouse plasma stability category [2]: A (>80% intact after 24 hours)
Compound: CC[C@H](C)[C@@H]1NC(=O)[C@H](CC(C)C)NC(=O)C2(CCN(C(=O)CN3CCN(CC(=O)O)CCN(CC(=O)O)CCN(CC(=O)O)CC3)CC2)NC(=O)[C@@H](NC(=O)[C@@H](CC(C)C)NC(=O)[C@H](CCC(=O)O)NC(=O)[C@@H]2C[C@@H](N)CN2C(=O)[C@H](Cc2c[nH]c3ccc(Cl)cc23)NC(=O)[C@H](Cc2c[nH]c3ccccc23)NC(=O)[C@H](CC(=O)O)NC(=O)CCCC(=O)NC[C@H](O)[C@@H](O)[C@H](O)[C@H](O)CO)CSCc2cccc(n2)CSC[C@@H](C(=O)NC2CCN(CC(=O)N[C@H](CCC(=O)NC[C@H](O)[C@@H](O)[C@H](O)[C@H](O)CO)C(N)=O)CC2)NC1=O [GIP-001, AGLU-Glutar-Asp-Trp-5Clw-Tap-Glu-leu-[Cys(2Lut)-Apc(DOTA)-Leu-Ile-Cys]-APAc-glu(AGLU)-NH2] ({NH(1-deoxy-D-glucityl)-Glutaryl}-DW[Trp(5-Cl)][Pro(4R-NH2)]E[dL]C[Api](DOTA)LIC[X1][dE](NH(1-deoxy-D-glucityl))-NH2; linker 7-11 via Pyridine(2,6-diCH2))
